Test results taken from article PMC9820279 (International Journal of Molecular Sciences, 2022).
Read-outs that look alike come from different tables or passages of the source.

System: HBMEC monolayer
[1] = matrix ASFE extract 24 µg/mL, 2 h incubation, n.d = not detected in lower compartment
[2] = matrix ASFE extract 24 µg/mL, 4 h incubation, n.d = not detected in lower compartment

Experimental: The cell line HBMEC was used as a simplified in vitro model of the BBB endothelium. […] Endothelial cell cultures were maintained at 37 °C in a humid atmosphere enriched with 5% CO2. In our studies, HBMEC were used between passage 25 and 29. For experiments, HBMECs were seeded using a volume of 200 µL at a density of 8 × 10^4 cells/mL in rat tail collagen-I (100 µg/mL) coated 96-well plates (for viability assay) or 500 µL at a density of 1.6 × 10^5 cells/mL in rat tail collagen-I (100 µg/mL) coated semi-permeable membranes in transwell inserts (0.4 µm pore, Corning Costar Corp., USA; for BBB integrity and transport assays) for 12-well plates. The incubation timepoints were assay dependent.
For the transendothelial transport assays, HBMEC were seeded on transwell inserts as described above and are schematically depicted in Figure 1a. After seeding, the media were changed every two days. Four days post-seeding, the HBMEC monolayer was formed, and the transport studies were performed. […] Vupper and Vlower is the upper and lower compartment volume (0.5 and 1.5 mL, respectively). The culture inserts were used for the subsequent integrity permeability studies.

Compound: C=C(C)[C@@H]1CCC2=CC(=O)C[C@@H](C)[C@]2(C)C1 [Nootkatone]
- Te % (SEM) 2 h (human): 29.9 (0.9) %
- Te % (SEM) 4 h (human): 43.0 (3.4) %

Compound: CC(=O)OC(C)(C)[C@@H]1CC[C@@]2(C)CO[C@]3(C)C=CO[C@]23C1 [Phytuberin]
- Te % (SEM) 2 h: 33.4 (1.5) %
- Te % (SEM) 4 h: 79.6 (2.2) %

Compound: O=C(O)c1ccc(O)c(O)c1 [Protocatechuic acid]
- Te % (SEM) 2 h [1]: 45.1 (3.8) %
- Te % (SEM) 4 h [2]: 71.7 (3.2) %

Compound: O=Cc1ccc(O)c(O)c1 [Protocatechuic aldehyde]
- Te % (SEM) 2 h [1]: 20.3 (1.5) %
- Te % (SEM) 4 h [2]: 78.2 (5.7) %

Compound: O=C(O)[C@]1(O)C[C@@H](O)[C@@H](O)[C@H](O)C1 [Quinic acid]
- Te % (SEM) 2 h (human, 2 h, 30 µg/mL): 20.1 (1.6) %
- Te % (SEM) 4 h (human, 4 h, 30 µg/mL): 52.5 (1.4) %

Compound: O=C(/C=C/c1ccc(O)c(O)c1)O[C@H](Cc1ccc(O)c(O)c1)C(=O)O [Rosmarinic acid]
- Te % (SEM) 2 h (human): 41.0 (2.3) %
- Te % (SEM) 4 h (human): 90.3 (4.2) %

Compound: C[C@@H]1O[C@@H](OC[C@H]2O[C@@H](Oc3c(-c4ccc(O)c(O)c4)oc4cc(O)cc(O)c4c3=O)[C@H](O)[C@@H](O)[C@@H]2O)[C@H](O)[C@H](O)[C@H]1O [Rutin]
- Detection / transport to brain side of HBMEC-BBB model: poor transport trough the BBB

Compound: CC[C@H](/C=C/[C@@H](C)[C@H]1CC[C@H]2[C@@H]3CC=C4C[C@@H](O)CC[C@]4(C)[C@H]3CC[C@]12C)C(C)C [Stigmasterol]
- Te % (SEM) 2 h (human): 40.4 (2.2) %
- Te % (SEM) 4 h (human): 64.5 (0.4) %

Compound: COc1cc(C=O)cc(OC)c1O [Syringaldehyde]
- Te % (SEM) 2 h (human): 22.7 (1.5)/33.4 (2.2) %
- Te % (SEM) 4 h (human): 45.7 (3.2)/42.0 (1.4) %
- Te % (SEM) 2 h [1]: 22.7 (1.5)/33.4 (2.2) %
- Te % (SEM) 4 h [2]: 45.7 (3.2)/42.0 (1.4) %

Compound: Cc1ccc(C(C)C)c(O)c1 [Thymol]
- Te % (SEM) 2 h (human, 2 h, 40 µg/mL): 34.1 (0.1) %
- Te % (SEM) 4 h (human, 4 h, 40 µg/mL): 47.0 (1.7) %

Compound: CCC(O)C1CC(C)C2(CC(=O)C3(C)C4=C(CCC32C)C2(C)CCC(=O)C(C)(CO)C2CC4)O1 [Triterpene, (23S,24S)-17,23-Epoxy-24,29-dihydroxy-27-norlanost-8-ene-3,15-dione]
- Te % (SEM) 2 h [1]: 30.4 (1.7) %
- Te % (SEM) 4 h [2]: 82.9 (5.3) %

Compound: C=C(C)[C@@H]1CCC2=CCC[C@@H](C)[C@]2(C)C1 [Valencene]
- Te % (SEM) 2 h: 51.9 (4.2) %

Compound: COc1cc(C(=O)O)ccc1O [Vanillic acid]
- Te % (SEM) 2 h [1]: 38.9 (1.2) %
- Te % (SEM) 4 h [2]: 42.2 (0.7) %

Compound: CC(C)C1CCC2(C)C3CC=C(C=O)C2C13 (stereo not drawn) [Ylangenal]
- Te % (SEM) 2 h: 32.0 (2.7) %
- Te % (SEM) 4 h: 36.9 (0.4) %

Compound: O=C(O)C=Cc1ccc(O)cc1 [p-Coumaric acid]
- Te % (SEM) 2 h (human): 9.1 (0.6) %
- Te % (SEM) 4 h (human): 37.8 (2.5) %

Compound: O=C(O)c1ccc(O)cc1 [p-Salycilic acid]
- Te % (SEM) 2 h: 25.5 (1.8) %
- Te % (SEM) 4 h: 43.4 (1.3) %

Compound: Cc1c(C)c2c(c(C)c1O)CC[C@@](C)(CCC[C@H](C)CCC[C@H](C)CCCC(C)C)O2 [α-Tocopherol]
- Te % (SEM) 2 h (human, 2 h, 15 µg/mL): 18.3 (0.8) %
- Te % (SEM) 2 h (human, 2 h, 40 µg/mL): 19.8 (0.2) %
- Te % (SEM) 4 h (human, 4 h, 15 µg/mL): 29.1 (1.5) %
- Te % (SEM) 4 h (human, 4 h, 40 µg/mL): 39.7 (3.0) %

Compound: C=C1CCC[C@]2(C)CC[C@H]3C(C)(C)C[C@]132 [β-Panasinsene]
- Te % (SEM) 2 h: 33.4 (1.5) %
- Te % (SEM) 4 h: 34.8 (1.0) %

Compound: C=CC(=C)CC/C=C(\C)CC/C=C(\C)C=O [β-Sinensal]
- Te % (SEM) 2 h: 31.6 (1.2) %
- Te % (SEM) 4 h: 38.2 (2.4) %

Compound: Cc1cc(O)c(C)c2c1O[C@](C)(CCC[C@H](C)CCC[C@H](C)CCCC(C)C)CC2 [β-Tocopherol]
- Te % (SEM) 4 h: 15.2 (0.8) %

Compound: C=CC1(C)CCC(=C(C)C)CC1C(=C)C (stereo not drawn) [γ-Elemene]
- Te % (SEM) 2 h: 30.1 (0.1) %
- Te % (SEM) 4 h: 41.8 (1.7) %

Compound: CC[C@@H](CC[C@@H](C)[C@H]1CC[C@H]2[C@@H]3CC=C4C[C@@H](O)CC[C@]4(C)[C@H]3CC[C@]12C)C(C)C [γ-Sitosterol]
- Te % (SEM) 2 h: 12.9 (0.6)/11.3 (0.5) %
- Te % (SEM) 4 h: 19.2 (1.3)/12.1 (0.6) %

Compound: Cc1c(O)cc2c(c1C)O[C@](C)(CCC[C@H](C)CCC[C@H](C)CCCC(C)C)CC2 [γ-Tocopherol]
- Te % (SEM) 2 h: 31.5 (0.8)/27.3 (2.1) %
- Te % (SEM) 4 h: 42.0 (0.8)/30.0 (1.6) %

Compound: CC1=C[C@@H]2C(=C(C)CC[C@H]2C(C)C)CC1 [δ-Cadinene]
- Te % (SEM) 2 h: 21.5 (0.8) %
- Te % (SEM) 4 h: 28.9 (2.4) %

Compound: Caffeoylshikimic acid
- Te % (SEM) 2 h: 14.3 (0.8) %
- Te % (SEM) 4 h: 29.0 (0.1) %

Compound: Cymenol
- Te % (SEM) 2 h: 51.5 (1.8) %

Compound: Farnesene
- Te % (SEM) 2 h: 46.0 (2.1) %
- Te % (SEM) 4 h: 50.9 (3.1) %

Compound: Phytol
- Te % (SEM) 2 h (human): 15.6 (0.3) %
- Te % (SEM) 4 h (human): 43.5 (3.7) %

Compound: Tocospiro A
- Te % (SEM) 2 h: 2.7 (0.2) %
- Te % (SEM) 4 h: 25.6 (1.5) %

Compound: Tocospiro B
- Te % (SEM) 2 h: 1.9 (0.1) %
- Te % (SEM) 4 h: 26.2 (1.0) %
